According to patent publication US20250170122A1, “CERTAIN CHEMICAL ENTITIES, COMPOSITIONS AND METHODS” (Intellikine LLC, priority 2009, published 2025):
Entries after “also recorded” stand apart in the source; their conditions may differ.

Assays:
[1] = tested on: p110δ or p110γ relative to p110α, p110β, DNAPK and/or mTor
Method: IC50 values are measured using either a standard TLC assay for lipid kinase activity (described below) or a high-throughput membrane capture assay. Kinase reactions are performed by preparing a reaction mixture containing kinase, inhibitor (2% DMSO final concentration), buffer (25 mM HEPES, pH 7.4, 10 mM MgCl2), and freshly sonicated phosphatidylinositol (100 μg/ml). Reactions are initiated by the addition of ATP containing 10 μCi of γ-32P-ATP to a final concentration 10 or 100 μM and allowed to proceed for 5 minutes at room temperature. For TLC analysis, reactions are then terminated by the addition of 105 μl 1N HCl followed by 160 μl CHCl3:MeOH (1:1). The biphasic mixture is vortexed, briefly centrifuged, and the organic phase is transferred to a new tube using a gel loading pipette tip precoated with CHCl3. This extract is spotted on TLC plates and developed for 3-4 hours in a 65:35 solution of n-propanol:1 M acetic acid. The TLC plates are then dried, exposed to a phosphorimager screen (Storm, Amersham), and quantitated.
Briefly, the assay is a time resolved FRET assay that indirectly measures PIP3 product formed by the activity of a PI3-K. The kinase reaction is performed in a microtitre plate (e.g., a 384 well microtitre plate). The total reaction volume is approximately 20 ul per well. In the first step, each well receives 2 ul of test compound in 20% dimethylsulphoxide resulting in a 2% DMSO final concentration. Next, approximately 14.5 ul of a kinase/PIP2 mixture (diluted in 1× reaction buffer) is added per well for a final concentration of 0.25-0.3 ug/ml kinase and 10 uM PIP2. […] To start the reaction, 3.5 ul of ATP (diluted in 1× reaction buffer) is added per well for a final concentration of 10 uM ATP. The plate is sealed and incubated for 1 hour at room temperature. The reaction is stopped by adding 5 ul of Stop Solution per well and then 5 ul of Detection Mix is added per well. The plate is sealed, incubated for 1 hour at room temperature, and then read on an appropriate plate reader. Data is analyzed and IC50s are generated using GraphPad Prism 5.
DNA-PK can be purchased from Promega and assayed using the DNA-PK Assay System (Promega) according to the manufacturer's instructions.
The cross-activity or lack thereof of one or more compounds of the present invention against mTor can be measured according to any procedures known in the art or methods disclosed below. The compounds described herein can be tested against recombinant mTOR (Invitrogen) in an assay containing 50 mM HEPES, pH 7.5, 1 mM EGTA, 10 mM MgCl2, 2.5 mM, 0.01% Tween, 10 μM ATP (2.5 μCi of μ-32P-ATP), and 3 μg/mL BSA. Rat recombinant PHAS-¼EBP1 (Calbiochem; 2 mg/mL) is used as a substrate. Reactions are terminated by spotting onto nitrocellulose, which is washed with 1 M NaCl/1% phosphoric acid (approximately 6 times, 5-10 minutes each). Sheets are dried and the transferred radioactivity quantitated by phosphorimaging.
Other kits or systems for assaying mTOR activity are commercially available. For instance, one can use Invitrogen's LanthaScreen™ Kinase assay to test the inhibitors of mTOR disclosed herein. This assay is a time resolved FRET platform that measures the phosphorylation of GFP labeled 4EBP1 by mTOR kinase. The kinase reaction is performed in a white 384 well microtitre plate. The total reaction volume is 20 ul per well and the reaction buffer composition is 50 mM HEPES pH7.5, 0.01% Polysorbate 20, 1 mM EGTA, 10 mM MnCl2, and 2 mM DTT.

basophilic granulocytes = assay: Basotest assay; assay type: cell-based; details: heparinized whole blood; dust mite or grass extract
Method: The baseotest assay is performed using Orpegen Pharma Basotest reagent kit. Heparinized whole blood is pre-incubated with test compound or solvent at 37° C. for 20 min. Blood is then incubated with assay kit stimulation buffer (to prime cells for response) followed by allergen (dust mite extract or grass extract) for 20 min. The degranulation process is stopped by incubating the blood samples on ice. The cells are then labeled with anti-IgE-PE to detect basophilic granulocytes, and anti-gp53-FITC to detect gp53 (a glycoprotein expressed on activated basophils). After staining red blood cells are lysed by addition of Lysing Solution. Cells are washed, and analyzed by flow cytometry.

[2] = tested on: established type II collagen induced arthritis; assay: Rat established type II collagen induced arthritis assay; assay type: in vivo; details: oral
Method: In order to examine the dose responsive efficacy of the compounds of the present invention in inhibiting the inflammation, cartilage destruction and bone resorption of 10 day established type II collagen induced arthritis in rats, compounds were administered orally daily or twice daily for 6 days.
Female Lewis rats were anesthetized and given collagen injections prepared and administered as described previously on day 0. On day 6, animals were anesthetized and given a second collagen injection. Caliper measurements of normal (pre-disease) right and left ankle joints were performed on day 9. On days 10-11, arthritis typically occurred and rats were randomized into treatment groups. Randomization was performed after ankle joint swelling was obviously established and there was good evidence of bilateral disease.
After an animal was selected for enrollment in the study, treatment was initiated by the oral route. Animals were given vehicle, control (Enbrel) or compound doses, twice daily or once daily (BID or QD respectively). Dosing was administered on days 1-6 using a volume of 2.5 ml/kg (BID) or 5 ml/kg (QD) for oral solutions. Rats were weighed on days 1-7 following establishment of arthritis and caliper measurements f ankles taken every day. Final body weights were taken on day 7 and animals were euthanized.

[3] = tested on: adjuvant induced arthritis model; assay: Adjuvant induced arthritis assay; assay type: in vivo
Method: Isoflurane-anesthetized Lewis rats (200-250 g) were implanted with an intrathecal (IT) catheter. After a 6 d recovery period, all animals except those that appeared to have sensory or motor abnormalities (fewer than 5% of the total number) were used for experiments. For IT administration, 10 μl of drug or saline followed by 10 μl of isotonic saline was injected through the catheter.
Lewis rats were immunized at the base of the tail with 0.1 ml of complete Freund's adjuvant (CFA) on day 0 several days after catheter implantation (n=6/group). Drug (e.g. one or more compounds of the present invention or vehicle) treatment was generally started on day 8 and continued daily until day 20. Clinical signs of arthritis generally begin on day 10, and paw swelling was determined every second day by water displacement plethysmometry.

[4] = tested on: collagen induced developing arthritis model; assay: Rat developing type II collagen induced arthritis assay; assay type: in vivo; details: for increase in ankle diameter over time: dose not stated
Method: In order to study the effects of the compounds of the present invention on the autoimmune disease arthritis, a collagen induced developing arthritis model was used. Female Lewis rats were given collagen injections at day 0. Bovine type II collagen was prepared as a 4 mg/ml solution in 0.01 N acetic acid. Equal volumes of collagen and Freund's incomplete adjuvant were emulsified by hand mixing until a bead of the emulsified material held its form in water. Each rodent received a 300 μl injection of the mixture at each injection time spread over three subcutaneous sites on the back.
Oral compound administration began on day 0 and continued through day 16 with vehicle (5% NMP, 85% PEG 400, 10% Solutol) or compounds of the present invention in vehicle or control (e.g. methotrexate) at 12 hour intervals daily. Rats were weighed on days 0, 3, 6, 9-17 and caliper measurements of ankles taken on days 9-17. Final body weights were taken, and then the animals were euthanized on day 17. After euthanization, blood was drawn and hind paws and knees were removed. Blood was further processed for pharmacokinetics experiments as well as an anti-type II collagen antibody ELISA assay. Hind paws were weighed and then with the knees preserved in 10% formalin. The paws and knees were subsequently processed for microcopy. Livers, spleen and thymus were also weighed. Sciatic nerves were prepared for histopathology.
Knee and ankle joints were fixed for 1-2 days and decalcified for 4-5 days. Ankle joints were cut in half longitudinally, knees were cut in half along the frontal plane. Joints were then processed, embedded, sectioned and stained with toluidine blue. Scoring of the joints was done according to the following criteria:
Percent inhibition of paw weight and AUC was calculated using the following formula:
% Inhibition=A−B/A×100 • A=Mean Disease Control—Mean Normal • B=Mean Treated—Mean Normal

[5] = tested on: OVA-induced allergic lung inflammation model; assay: Ovalbumin-induced lung inflammation assay; assay type: in vivo, rats; details: oral; bronchoalveolar lavage after 4 daily ovalbumin challenges
Method: In the ovalbumin-induced lung inflammation assay, compounds were dosed orally. A group was dosed with vehicle only and dexamethasone (5 mg/kg) was used in another group as positive control. Pulmonary inflammation was determined 4 days after 4 consecutive daily intranasal instillation of ovalbumin. Compounds were given by gavage 30 min before each challenge (4 challenges) at the indicated doses. The following parameters were evaluated: Total number of leukocytes and number of eosinophils in bronchoalveolar lavage (BAL).

[6] = tested on: LPS-induced lung inflammation model; assay: LPS-induced lung inflammation assay; assay type: in vivo, rats; details: oral; bronchoalveolar lavage 6 h after intranasal LPS
Method: To perform the LPS-induced lung inflammation assay, compounds were dosed orally. A group was dosed with vehicle only and dexamethasone (5 mg/kg) was used in another group as positive control. Pulmonary inflammation was determined 6 h after intranasal instillation of LPS (10 μg). The following parameters were evaluated: total number of leukocytes and number of neutrophils in bronchoalveolar lavage (BAL).

## C[C@H](Nc1ncnc2[nH]cnc12)c1cc2cccc(Cl)c2c(=O)n1-c1ccc(F)cc1 [Compound 329]
[1]
  selectivity ratio: ≥ 3

## C[C@H](Nc1ncnc2[nH]c(Cl)nc12)c1cc2cccc(Cl)c2c(=O)n1-c1ccccc1 [Compound 333]
[1]
  selectivity ratio: ≥ 3

## C[C@H](Nc1ncnc2[nH]cnc12)c1cc2cccc(F)c2c(=O)n1-c1ccc(F)cc1 [Compound 332]
[1]
  selectivity ratio: ≥ 3

## C[C@H](Nc1ncnc2ccsc12)c1cc2cccc(Cl)c2c(=O)n1-c1ccccc1 [Compound 344]
[1]
  selectivity ratio: ≥ 3

## CC(=O)Nc1nc2ccc(-c3nn(Cc4cc5cccc(C)c5c(=O)n4-c4ccccc4C)c4ncnc(N)c34)cc2s1 [Compound 53]
Basophilic granulocytes
  inhibition of allergen induced activation of basophilic granulocytes, active range: sub micromolar range
[2]; once daily dosage
  mean ankle diameter increase over time: significant reduction in mean ankle diameter increase over time
[2]; twice daily dosage
  mean ankle diameter increase over time: significant reduction in mean ankle diameter increase over time
[3]; rat, in vivo
  average paw volume increase: dose dependent reduction in the average paw volume increase
  toxicity or other adverse reaction as measured by weight loss: does not exhibit toxicity or other adverse reaction
[4]; 60 mg/kg
  ankle histopathology, all categories: statistically significant reduction in all categories of ankle histopathology
[4]; 10, 20, and 60 mg/kg dosage levels
  serum anti-type II collagen levels: reducing the level of anti-type II collagen antibodies; also recorded: significant reduction
[4]; 10, 30, and 60 mg/kg at 12 hour intervals, oral, relative to vehicle or methotrexate control
  mean ankle diameter increase over time: significant reduction in arthritis induced ankle diameter increase over time
[4]; developing arthritis, oral
  ankle histopathology (inflammation, pannus, cartilage damage, bone resorption): improving ankle histopathology; also recorded: significant reduction in one or more categories
  knee histopathology: dose dependent reduction in knee histopathology

## C[C@H](Nc1ncnc2[nH]cnc12)c1cc2cccc(Cl)c2c(=O)n1-c1cccc(F)c1 [Compound 328]
[1]
  selectivity ratio: ≥ 3

## Nc1ncnc2c1c(-c1cn[nH]c1)nn2Cc1cc2cccc(Cl)c2c(=O)n1-c1cccc(F)c1 [Compound 339]
[1]
  selectivity ratio: ≥ 3

## Nc1ncnc2c1c(-c1cn[nH]c1)nn2Cc1cc2cccc(Cl)c2c(=O)n1-c1ccccc1F [Compound 337]
[1]
  selectivity ratio: ≥ 3

## Cc1cccc2cc([C@H](C)Nc3ncnc4[nH]cnc34)n(C3CC3)c(=O)c12 [compound 200, (S)-3-(1-(9H-purin-6-ylamino)ethyl)-2-cyclopropyl-8-methylisoquinolin-1(2H)-one]
[4]
  increase in ankle diameter over time: reducing the increase in ankle diameter over time

## [2H]c1nc2c(N[C@@H](C)c3cc4cccc(Cl)c4c(=O)n3C3CC3)ncnc2[nH]1 [Compound 350]
[1]
  selectivity ratio: ≥ 3

## [2H]c1nc2c(N[C@@H](C)c3cc4cccc(C)c4c(=O)n3-c3ccccc3)ncnc2[nH]1 [Compound 349]
[1]
  selectivity ratio: ≥ 3

## C[C@H](Nc1ncnc2[nH]cnc12)c1cc2cccc(F)c2c(=O)n1-c1ccccc1 [Compound 330]
[1]
  selectivity ratio: ≥ 3

## C[C@H](Nc1ncnc2[nH]cnc12)c1cc2cccc(Cl)c2c(=O)n1C1CC1 [compound 270, (S)-3-(1-(9H-purin-6-ylamino)ethyl)-2-cyclopropyl-8-chloro-isoquinolin-1(2H)-one]
[4]
  increase in ankle diameter over time: reducing the increase in ankle diameter over time

## Cc1csc2ncnc(N[C@@H](C)c3cc4cccc(Cl)c4c(=O)n3-c3ccccc3)c12 [Compound 352]
[1]
  selectivity ratio: ≥ 3

## C[C@H](Nc1nc(N)ncc1C(F)(F)F)c1cc2cccc(Cl)c2c(=O)n1-c1ccccc1 [Compound 346]
[1]
  selectivity ratio: ≥ 3

## C[C@H](Nc1ncnc2[nH]cnc12)c1cc2cccc(Cl)c2c(=O)n1-c1ccccc1 [compound 292, (S)-3-(1-(9H-purin-6-ylamino)ethyl)-8-chloro-2-phenylisoquinoline-1(2H)-one]
[3]; dose not stated
  increase in ankle diameter over time: reducing the increase in ankle diameter over time
[4]
  increase in ankle diameter over time: reducing the increase in ankle diameter over time
[5]
  eosinophil influx: inhibiting eosinophil influx
[6]
  LPS-induced total leukocyte neutrophil influx: inhibiting LPS-induced total leukocyte neutrophil influx

## C[C@H](Nc1ncnc2[nH]cnc12)c1cc2ncccc2c(=O)n1-c1ccccc1 [Compound 357]
[1]
  selectivity ratio: ≥ 3

## Nc1ncnc2c1c(-c1cn[nH]c1)nn2Cc1cc2cccc(Cl)c2c(=O)n1-c1ccccc1 [Compound 338]
[1]
  selectivity ratio: ≥ 3

## C[C@H](Nc1ncnc2sccc12)c1cc2cccc(Cl)c2c(=O)n1-c1ccccc1 [Compound 343]
[1]
  selectivity ratio: ≥ 3

## C[C@H](Nc1ncnc2c1ncn2C)c1cc2cccc(Cl)c2c(=O)n1-c1ccccc1 [Compound 340]
[1]
  selectivity ratio: ≥ 3

## CNc1ncc(C(F)(F)F)c(N[C@@H](C)c2cc3cccc(Cl)c3c(=O)n2-c2ccccc2)n1 [Compound 354]
[1]
  selectivity ratio: ≥ 3

## Cc1cccc2cc([C@H](C)Nc3ncnc4[nH]cnc34)n(-c3ccccc3)c(=O)c12 [compound 196]
[4]
  increase in ankle diameter over time: reducing the increase in ankle diameter over time

## Cc1ccccc1-n1c(Cn2nc(-c3cn[nH]c3)c3c(N)ncnc32)cc2cccc(Cl)c2c1=O [Compound 336]
[1]
  selectivity ratio: ≥ 3

## C[C@H](Nc1ncnc2[nH]cnc12)c1cc2cccc(F)c2c(=O)n1-c1cccc(F)c1 [Compound 331]
[1]
  selectivity ratio: ≥ 3
